Tests used:
[1] = Cyclic voltammetry, cathodic reduction potential in aqueous solution; format: physicochemical; details: values normalized vs. SCE; phosphate buffer pH 7.4, 5 mM NaCl, 5·10^−4 M complex, scan rate 0.020 V s^−1
Protocol: The electrochemical characterization of compounds 1–6, performed by using cyclic voltammetry (CV), was carried out with the aim of determining the cathodic reduction potentials in aqueous solution (Ep^c).
Cyclic voltammetry (CV) measurements were carried out with a potentiostat CHI 1230B (CH Instruments, Inc., Austin, TX, USA) in a standard three-electrode electrochemical cell. The working electrode was a glassy carbon (GC) electrode, the reference electrode was a KCl-saturated Ag/AgCl and the counter was a Pt sheet. The GC electrode was carefully polished with alumina powder, then rinsed with distilled water and dried, to obtain a reproducible surface for all the experiments. All the measurements, conducted in triplicate, were carried out in buffered aqueous solutions containing the Pt(IV) compound at a concentration of 5·10^−4 M in 10 mL phosphate buffer (PB, pH = 7.4, I = 0.1) and 5 mM NaCl as supporting electrolyte. A blank solution (without Pt(IV) complex) was also tested. All the peak potentials were measured with a scan rate of 0.020 V s^−1; the initial potential was chosen equal to the open-circuit potential and the scan direction was negative. All the CV plots were acquired after an equilibration time of 2 min in order to make the GC surface reproducible.

[2] = system: 2008 human ovarian cancer cells; assay: MTT cytotoxicity test, 72 h; format: cell-based; details: 2008, MTT
Protocol: (§1) The in vitro cytotoxic activities of compounds 1–6 were assayed on a panel of human cancer cell lines containing examples of pancreatic (PSN-1), colon (HCT-15 and LoVo), cervical (A431), and ovarian (2008) cancers. Cisplatin and oxaliplatin were used as reference compounds and were tested under the same experimental conditions.
(§2) Human colon (HCT-15 and LoVo) and pancreatic (PSN-1) carcinoma cell lines were obtained from the American Type Culture Collection (ATCC, RocKville, MD). The 2008 human ovarian cancer cells were kindly provided by Prof. G. Marverti (Dept. of Biomedical Science of Modena University, Italy). Human cervical carcinoma (A431) cells were kindly provided by Prof. F. Zunino (Division of Experimental Oncology B, Istituto Nazionale dei Tumori, Milan, Italy). […] Cell lines were maintained in the logarithmic phase at 37 °C in a 5% carbon dioxide atmosphere using RPMI-1640 or F-12 culture medium (Euroclone) containing 10% fetal calf serum (Euroclone, Milan, Italy), antibiotics (50 units per mL penicillin and 50 μg mL^−1 streptomycin), and 2 mM L-glutamine.
(§3) The growth inhibitory effect toward the tumor cell lines was evaluated by the MTT test. Briefly, 3-8·10^3 cells/well, depending upon the growth characteristics of the cell lines, were seeded in 96-well microplates in growth medium (100 µL) and then incubated at 37 °C in a 5% carbon dioxide atmosphere. After 24 h, the medium was removed and replaced with a fresh one containing the compound to be tested at the appropriate concentration. Triplicate cultures were established for each treatment. After 72 h, each well was treated with 10 µL of a 5 mg·mL^−1 MTT (3-(4,5-dimethylthiazol-2-yl)-2,5-diphenyltetrazolium bromide) saline solution and, after 5 h of incubation, 100 µL of a sodium dodecylsulfate (SDS) solution in HCl 0.01 M were added. Following an overnight incubation, the inhibition of cell growth induced by the tested complexes was evaluated by measuring the absorbance of each well at 570 nm using a Bio-Rad 680 microplate reader (Bio-Rad Laboratories S.r.l., Segrate (MI), Italy).

[3] = system: A431 human cervical carcinoma cells; assay: MTT cytotoxicity test, 72 h; format: cell-based
Protocol: as §1, §2, §3

[4] = system: HCT-15 human colon carcinoma cells; assay: MTT cytotoxicity test, 72 h; format: cell-based; details: HCT-15, MTT
Protocol: as §1, §2, §3

[5] = system: LoVo human colon carcinoma cells; assay: MTT cytotoxicity test, 72 h; format: cell-based
Protocol: as §1, §2, §3

[6] = system: PSN-1 human pancreatic carcinoma cells; assay: MTT cytotoxicity test, 72 h; format: cell-based; details: PSN-1, MTT
Protocol: as §1, §2, §3

LoVo-OXP cancer cells = assay: MTT cytotoxicity test, 72 h, oxaliplatin-resistant cells; format: cell-based, human; details: for IC50: LoVo OXP
Text: as §2, §3

[7] = system: human A431 cancer cell spheroids; assay: Cytotoxicity towards 3D spheroids, acid phosphatase (APH) assay; format: cell-based; details: A431 3D spheroids, 72 h; for IC50: APH assay
Text: The remarkable cell-killing effect observed against human A431 squamous cervical carcinoma two-dimensional (2D) cultured cells prompted us to evaluate the in vitro antitumor activity of compounds 1–6 on three-dimensional (3D) cell cultures. As opposed to 2D monolayer cultures, cells growing in 3D culture systems form spheroids that comprise cells in various stages. […] Such cellular heterogeneity resembles that of in vivo tumors, making 3D cell cultures more predictive than conventional 2D monolayer cultures in screening antitumor drugs.
Spheroid cultures were obtained by seeding 2.5 × 10^3 A431 cancer cells/well in a round bottom non-treated tissue culture 96 well-plate (Greiner Bio-one, Kremsmünster, Austria) in phenol red free RPMI-1640 medium (Sigma Chemical Co.) containing 10% fetal calf serum (FCS) and supplemented with 20% methyl cellulose stock solution.
An APH modified assay was used for determining cell viability in 3D spheroids, as previously described. IC50 values were calculated with a four parameter logistic (4-PL) model.

A431 cells = assay: Cellular accumulation of Pt (GF-AAS); format: cell-based, human; details: 24 h, 0.5 μM
Protocol: It is clearly recognized that the antitumor activity of platinum-based anticancer drugs depends on the ability of compounds to accumulate into cancer cells and to bind to nuclear DNA, thus inducing transcription inhibition and cell death. Therefore, we investigated the cellular uptake as well as the DNA binding ability of 1–6 in human A431cervical cancer cells. Cells were treated for 24 h with 0.5 μM of 1–6 or CDDP and the total cellular and DNA-bound platinum contents were quantified using GF–AAS analysis. The results, expressed as ng of metal per 10^6 cells, in the case of cellular uptake (A) and as pg of metal per μg of DNA, in the case of DNA-bound platinum (B) are summarized in Figure 9.
A431 cells (2·10^6) were seeded in 75 cm^2 flasks in growth medium (20 mL). After 24 h, the medium was replaced and the cells incubated for 24 h in the presence of the tested complexes.
Cells monolayers were washed twice with cold phosphate-buffered saline (PBS), harvested, and counted. Samples were subjected to three freeze–thaw cycles at −80 °C, and then vigorously vortexed. The samples were treated with highly pure nitric acid (1 mL; Pt ≤ 0.01 mg kg^−1, Trace-SELECT Ultra, Sigma Chemical Co.) and transferred into a microwave Teflon vessel. Subsequently, samples were submitted to standard mineralization procedures. Samples were analyzed for platinum by using a Varian AA Duo graphite furnace atomic absorption spectrometer (Varian, Palo Alto, CA; USA) at a wavelength of […]. The calibration curve was obtained using known concentrations of standard solutions purchased from Sigma Chemical Co.

SMILES | Cathodic reduction potential Ep^c [1] [V] | IC50 [2] [nM] | IC50 [3] [nM] | IC50 [4] [nM] | IC50 [5] [nM] | IC50 [6] [nM] | IC50 (LoVo-OXP cancer cells) [nM] | IC50 [7] [nM] | cellular uptake (cellular internalization of Pt), in words (A431 cells) | effectiveness against sensitive (LoVo) versus resistant (LoVo-OXP) cells (LoVo-OXP cancer cells) | efficacy in decreasing cancer spheroid viability, times higher than CDDP [7] | efficacy in decreasing cancer spheroid viability, times higher than OXP [7]
CC(=O)[O][Pt]1([Cl])[O]C(=O)C(=O)[O]1.NC1CC=CCC1N (racemic) [Complex 5, cis,trans,cis-[Pt(OXA)(AcO)Cl(DACHEX)]] | −0.82 | 930 ± 300 | 1510 ± 600 | 1970 ± 400 | 250 ± 50 | 3580 ± 1400 | > 2000 | 26400 ± 5500 | the worst in crossing the cell plasmalemma |  |  | 
NC1CC=CCC1N.O=C1[O][Pt]([OH])([Cl])[O]C1=O (racemic) [Complex 6, cis,trans,cis-[Pt(OXA)(OH)Cl(DACHEX)]] | −0.48 | 1870 ± 400 | 1310 ± 700 | 1670 ± 400 | 660 ± 20 | 5250 ± 1200 | > 2000 | 30200 ± 3800 | the worst in crossing the cell plasmalemma |  |  | 
NC1CC=CCC1N.O=C([O-])C(=O)[O-].O=C([O-])c1ccccc1.O=C([O-])c1ccccc1.[Pt+4] (mixture of isomers) [Complex 3, cis,trans,cis-[Pt(OXA)(BzO)2(DACHEX)]] | −0.99 | 140 ± 30 | 160 ± 70 | 410 ± 100 | 70 ± 20 | 540 ± 300 | 90 ± 20 | 1800 ± 400 | the most effective in entering cancer cells | equally effective | about 32 | ~20
